# From publication PMC11286589, “Population pharmacokinetics and exposure–response analyses of SAF-189s in Chinese patients with ALK+/ROS1+ non-small cell lung cancer” (Frontiers in Pharmacology, 2024)
# Read-outs that look alike come from different tables or passages of the source.
# How the values were obtained:
# [1] = set-up: method as in Qin et al., 2023; details: ref Qin et al., 2023, cited from earlier work
# [2] = tested on: ALK+/ROS1+ advanced NSCLC; experiment: Exposure–efficacy analysis (logistic regression, Cox regression, SFBE tumor model); type: in vivo, human; details: for Incidence CR: 61 patients
# Protocol: (§1) All studies were conducted in accordance with the Good Clinical Practice guidelines and Declaration of Helsinki. The protocols were approved by the independent ethics committee of each investigation site, and all subjects provided informed consent. The tumor responses were assessed by the IRC based on the Response Evaluation Criteria in Solid Tumors (RECIST) 1.1 conditions. The exposure–efficacy analyses of SAF-189s were conducted based on data from patients in the SAF001 study to explore the relationships between systemic exposure and efficacy endpoints, including the ORR, PFS, and duration of response (DOR). The exposure–safety analyses of SAF-189s were conducted based on data from patients in the SAF001 study to explore the relationships between the systemic exposure and safety endpoints, including the adverse events (AEs) of interest. In these studies, the SAF-189s plasma concentrations were analyzed using validated liquid chromatography tandem mass spectrometry within the assay range of 0.5–150 ng mL^–1.
# The exposure–efficacy analysis entails evaluation of the relationships between the individual SAF-189s exposures and efficacy endpoints. These efficacy endpoints include the ORR, PFS, DOR, and tumor size. In Eq. 1, the Stein-Fojo biexponential (SFBE) model was used to characterize the tumor shrinkage (mean shrinkage rate, KS) and tumor growth inhibition (mean regrowth rate, KG) parameters to compute the sum of longest lesion diameters (SOD). SODij= It≤0×SOD0i×expKGi×tij+It>0×SOD0i×exp−KSi×tij+expKGi×tij−1+eij. (1)
# The individual post hoc PK parameters from the final PopPK model and the most prevalent dosage were used to calculate Cmin,ss and AUCss at steady state. The exposure was assessed for its relationship with the ORR using a logistic regression model and with PFS/DOR using the Cox regression model. The individual model parameter estimates (KGi, KSi) were plotted versus Cmin, ss_i to explore the relationships between exposure and tumor growth.
# CYP3A = details: no reference given; cited from earlier work
# [3] = tested on: ALK+/ROS1+ advanced NSCLC; details: ref Yang et al., cited from earlier work; for ORR: phase II, 2022a
# [4] = Exposure–safety analysis (logistic regression); type: in vivo, human; details: per increase in exposure (AUCss) of 1 ng∙h mL^–1 d^–1, all patients
# Protocol: as §1
# (§2) The exposure–safety relationships were characterized using the exposure metrics to the first occurrence of an event. The AEs of interest selected for analysis included hyperglycemia and proteinuria. The individual post hoc PK parameters from the final PopPK model and the first dosage were used to calculate the Cmin,ss, Cmax,ss, and AUCss at steady state, which were used as the exposure metrics. The exposure–safety analysis was performed using a logistic regression modeling approach.
# [5] = tested on: tumor xenograft models derived from genetically engineered cells overexpressing ALK rearrangements, ROS1+ rearrangements, or crizotinib-resistant ALK and ROS1 …; set-up: method as in Xia et al., 2021; details: tumor xenograft and CNS tumor models; ref Xia et al., 2021; cited from earlier work
# efflux transporter P-gp = details: in vitro studies, no reference given; cited from earlier work
# [6] = Adverse events in patients of study SAF001; type: in vivo, human
# Protocol: as §1, §2
# [7] = high-fat meal vs fasted, single dose 160 mg
# [8] = single dose 160 mg, unaffected by food
# [9] = Cmin,ss quartile 1, 61 patients
# [10] = Cmin,ss quartile 2, 61 patients
# [11] = Cmin,ss quartile 3, 61 patients
# [12] = Cmin,ss quartile 4, 61 patients
# [13] = parameter Cmin,ss, 192 patients, p 0.251
# [14] = parameter Cmin,ss, 244 patients, p 0.059
# [15] = ROS1-naive patients, phase IIa, 2022b
smiles,measurement,setting,value
Cc1cc(Nc2ncc(Cl)c(Nc3ccccc3S(=O)(=O)C(C)C)n2)c2c(c1C1CCN(C)CC1)C[C@@H](C)O2 [SAF-189s],intersubject variability AUC0-t,[1]; fasted,33.8%
same,intersubject variability AUC0-∞,[1]; fasted,34.6%
same,intersubject variability Cmax,[1]; fasted,23.0%
same,intersubject variability AUC0-t,[1]; fed,31.3%
same,intersubject variability AUC0-∞,[1]; fed,32.8%
same,intersubject variability Cmax,[1]; fed,19.7%
same,geometric mean ratio AUC0-t,[1]; [7],105.1%
same,geometric mean ratio Cmax,[1]; [7],109.1%
same,Tmax (median),[1]; [8],6 h
same,t½ (mean),[1]; [8],around 35 h
same,Incidence CR,"[2]; Cmin,ss quartile 1 (18–60.7 ng mL^–1)",1 (1.64) N (%)
same,Incidence NE,[2]; [9],0 (0.00) N (%)
same,Incidence PD,[2]; [9],3 (4.92) N (%)
same,Incidence PR,[2]; [9],53 (86.89) N (%)
same,Incidence SD,[2]; [9],4 (6.56) N (%)
same,Incidence CR,"[2]; Cmin,ss quartile 2 (60.7–79 ng mL^–1)",0 (0.00) N (%)
same,Incidence NE,[2]; [10],0 (0.00) N (%)
same,Incidence PD,[2]; [10],4 (6.56) N (%)
same,Incidence PR,[2]; [10],44 (72.13) N (%)
same,Incidence SD,[2]; [10],13 (21.31) N (%)
same,Incidence CR,"[2]; Cmin,ss quartile 3 (79–108 ng mL^–1)",0 (0.00) N (%)
same,Incidence NE,[2]; [11],0 (0.00) N (%)
same,Incidence PD,[2]; [11],2 (3.28) N (%)
same,Incidence PR,[2]; [11],47 (77.05) N (%)
same,Incidence SD,[2]; [11],12 (19.67) N (%)
same,Incidence CR,"[2]; Cmin,ss quartile 4 (108–182 ng mL^–1)",1 (1.64) N (%)
same,Incidence NE,[2]; [12],0 (0.00) N (%)
same,Incidence PD,[2]; [12],3 (4.92) N (%)
same,Incidence PR,[2]; [12],46 (75.41) N (%)
same,Incidence SD,[2]; [12],11 (18.03) N (%)
same,"odds ratio (OR), probability of achieving ORR vs Cmin,ss","[2]; logistic regression, all patients (n = 244), p = 0.084",0.556
same,"Cox regression estimate, DOR",[2]; [13],0.0059
same,"Hazard ratio (95% CI), DOR",[2]; [13],1.006 (0.996–1.016)
same,"Cox regression estimate, PFS",[2]; [14],0.0071
same,"Hazard ratio (95% CI), PFS",[2]; [14],1.007 (1.000–1.015)
same,tumor size after initiation of treatment,"[2]; tumor growth inhibition (SFBE) model, most patients",decreased rapidly
same,CYP3A substrate,CYP3A,substrate of CYP3A
same,IRC-assessed ORR,[3]; [15],94.1%
same,median progression-free survival (PFS),[3]; [15],16.5 months
same,ORR,[3]; ALK+ patients with brain metastases,74.6%
same,ORR,[3]; ALK-inhibitor-naive patients,92.3%
same,ORR,[3]; crizotinib-pretreated group,65.4%
same,ORR,[3]; overall ALK+ patients,78.7%
same,IRC-assessed ORR,"[3]; phase IIb, ROS1-naive, brain metastases subgroup, 2022b",85.7%
same,IRC-assessed ORR,"[3]; phase IIb, overall ROS1-naive patients, 2022b",80.4%
same,OR for any-grade hyperglycemia,[4]; p < 0.001,3.521
same,OR for grade ≥2 hyperglycemia,[4]; p < 0.001,7.662
same,OR for proteinuria,[4]; p = 0.021,2.031
same,antitumor effects,[5],Strong antitumor effects
same,P-gp inhibitor,efflux transporter P-gp,inhibitor
same,P-gp substrate,efflux transporter P-gp,substrate
same,tolerability,[6]; 160 mg QD dosing regimen,well tolerated
same,incidence of drug-related TEAE leading to permanent discontinuation,[6]; 160 mg dose group,2%
same,incidence of grade ≥3 TEAE,"[6]; 160 mg dose group, ALK+ and ROS1+ patients (n = 153)",less than 9.15%
same,tolerability,[6]; 210 mg dose vs other lower doses,less tolerated
same,incidence rate of hyperglycemia,"[6]; SAF001 patients, any grade",55.74%
same,"Diarrhea, number of patients (%)","[6]; any grade, N = 296",65 (21.96%)
same,"Hypercholesterolemia or cholesterol increase, number of patients (%)","[6]; any grade, N = 296",111 (37.50%)
same,"Hyperglycemia, number of patients (%)","[6]; any grade, N = 296",165 (55.74%)
same,"Nausea, number of patients (%)","[6]; any grade, N = 296",112 (37.84%)
same,"Proteinuria, number of patients (%)","[6]; any grade, N = 296",90 (30.41%)
same,"Vomiting, number of patients (%)","[6]; any grade, N = 296",102 (34.46%)
same,"Diarrhea, number of patients (%)","[6]; ≥ Grade 2, N = 296",17 (5.74%)
same,"Hypercholesterolemia or cholesterol increase, number of patients (%)","[6]; ≥ Grade 2, N = 296",27 (9.12%)
same,"Hyperglycemia, number of patients (%)","[6]; ≥ Grade 2, N = 296",82 (27.70%)
same,"Nausea, number of patients (%)","[6]; ≥ Grade 2, N = 296",8 (2.70%)
same,"Proteinuria, number of patients (%)","[6]; ≥ Grade 2, N = 296",28 (9.46%)
same,"Vomiting, number of patients (%)","[6]; ≥ Grade 2, N = 296",15 (5.07%)
